Assay results from patent US10280190B2, “Nicotinic acid riboside or nicotinamide riboside compositions, reduced derivatives thereof, and the use thereof to enhance skin permeation in treating skin conditions” (ChromaDex Inc., priority 2015, dated 2019).

Test system: A431 human epidermoid cells
Test: Oxidative damage protection assay (Example 3), compound with 1 mM H2O2, alamar blue readout
Format: cell-based
Description: The cells were trypsinized with 0.25% trypsin EDTA solution for 2-3 minutes until the cells were dislodged. The cells were sub-cultured in a ratio of 1:3 for further growth and scale-up for the assay. The cells were trypsinized and counted to a density of 5,000 or 15,000 cells and seeded in 100 μL media per well, in 96-well clear bottom black plates. The outer wells at the periphery of the plates were left unneeded and were instead filled with media to reduce the edge effect during incubation. […] Each concentration was tested in 6 replicates.
Detection method used: Cell Titer blue (Promega, Cat# G8080).

For `CC(=O)OC[C@H]1O[C@@H](N2C=CCC(C(N)=O)=C2)[C@H](OC(C)=O)[C@@H]1OC(C)=O` [NRH triacetate (2), 1-(2′,3′,5′-triacetyl-beta-D-ribofuranosyl)-1,4-dihydronicotinamide], the “mitigating oxidative damage to human skin cells” value (Trial A, FIG. 1, 1 mM H2O2 for 20 hours, all doses (0.1, 0.3, 1 mM)) was “capable of mitigating oxidative damage”, the “cytoprotection compared to positive controls” value (Trial A, FIG. 1, 1 mM H2O2 for 20 hours, dose-dependent, highest over 0.1-1 mM) was “up to 88%” and the “cytoprotection compared to positive controls” value (Trial B, FIG. 2, 1 mM H2O2, compound at 1 mM) was 94%. The “protection against oxidative damage in skin cells” value (composite of Trials A and B, FIG. 3) was “can protect against oxidative damage”.
